Data published in ChEMBL document CHEMBL5137110, “Production of Multiple Talaroenamines from Penicillium malacosphaerulum via One-Pot/Two-Stage Precursor-Directed Biosynthesis” (J Nat Prod, 2022).
Converted amounts (≈) assume the structure as drawn. Where a name gives a salt, the structure may show the parent alone.

Key:
K562 = assay: Cytotoxicity against human K562 cells assessed as reduction in cell viability by MTT assay; type: functional, cell-based
ASPC1 = assay: Cytotoxicity against human ASPC1 cells assessed as reduction in cell viability by SRB assay; type: functional, cell-based
H69AR = assay: Cytotoxicity against human H69AR cells assessed as reduction in cell viability by SRB assay; type: functional, cell-based
L02 = assay: Cytotoxicity against human L02 cells assessed as reduction in cell viability by SRB assay; type: functional, cell-based
MDA-MB-231 = assay: Cytotoxicity against human MDA-MB-231 cells assessed as reduction in cell viability by SRB assay; type: functional, cell-based
Proteus = assay: Antibacterial activity against Proteus species assessed as inhibition of bacterial growth incubated for 18 to 20 hrs by agar dilution method; type: functional; conditions: time 18-20 hrs
Bacillus cereus = assay: Antibacterial activity against Bacillus cereus assessed as inhibition of bacterial growth incubated for 18 to 20 hrs by agar dilution method; type: functional; conditions: time 18-20 hrs
Escherichia coli = assay: Antibacterial activity against Escherichia coli assessed as inhibition of bacterial growth incubated for 18 to 20 hrs by agar dilution method; type: functional; conditions: time 18-20 hrs

| MIC (Proteus) [µg/mL] | MIC (Bacillus cereus) [µg/mL] | MIC (Escherichia coli) [µg/mL] | SMILES | IC50 (K562) [µM] | IC50 (ASPC1) [µM] | IC50 (H69AR) [µM] | IC50 (L02) [µM] | IC50 (MDA-MB-231) [µM] |
| --- | --- | --- | --- | --- | --- | --- | --- | --- |
| – | – | – | CC1=CC(=O)[C@@](C)(O)C(=O)/C1=C\Nc1ccc(C(=O)O)cc1 | 8.5 | > 30 | 9.6 | 16.1 | > 30 |
| 16.3 (≈ 50 µM) | 16.3 (≈ 50 µM) | 16.3 (≈ 50 µM) | CC1=CC(=O)[C@@](C)(O)C(=O)/C1=C\Nc1ccc(Cl)c(Cl)c1 | – | – | – | – | – |
| – | – | – | CC1=CC(=O)[C@@](C)(O)C(=O)/C1=C\Nc1cccc(C(N)=O)c1 | 2.2 | > 30 | > 30 | 17 | > 30 |
| – | – | – | CC1=CC(=O)[C@@](C)(O)C(=O)/C1=C\Nc1ccc(F)cc1Br | 2.8 | > 30 | > 30 | 20.9 | > 30 |
| – | – | – | COc1cccc2c1C(=O)c1c(O)c3c(c(O)c1C2=O)C[C@@](O)(C(=O)CO)C[C@@H]3O[C@H]1C[C@H](N)[C@H](O)[C@H](C)O1 [DOXORUBICIN HYDROCHLORIDE] | – | – | 15.1 | 0.2 | 0.3 |
